{"source": "patent EP0951284B1", "about": "“[…] DERIVATIVES” (priority 1996, dated 1998)", "system": "mice", "experiment": "Closed head injury (CHI) in mice: motor function, neurological severity score (NSS)", "assay_type": "in vivo", "details": "sc at ED50 for acetylcholinesterase inhibition, once 15 min after CHI", "method": "The procedure for closed head injury followed was as described for rats in Shohami et al. (J. Neurotrauma (1993) 10(2) 109-119) with changes as described.\nAnimals: Male Sabra mice (Hebrew University strain) weighing 34-40g were used. They were housed in groups of 10 per cage, in a 12hr:12hr light:dark cycle. Food and water were provided ad libitum.\nTrauma was induced under ether anesthesia. A longitudinal incision was performed in the skin covering the skull and the skin retracted to expose the skull. The head was fixed manually at the lower plane of the impact apparatus. A weight of 333g was delivered by an electric device from a height of 3cm to the left hemisphere, 1-2mm lateral to the midline in the midcoronal plane.\nOne point was awarded for the lack of a tested reflex or for the inability to perform the tasks outline in the Table. The maximal score that can be reached at 1 hour post-CHI is 25 points and 21 at later times. The difference in NSS at 1hr and at any other time reflects the recovery, and is referred to as NSS. An NSS score of 15-19 at 1hr denotes severe injury, 11-14 moderate injury and less than 10 mild injury.", "note": "Where a name gives a salt, the structure may show the parent alone."}
{"molecule": "C#CCNC(C)Cc1cccc(OC(=O)N(C)CC)c1", "note": "(stereo not drawn) [Compound 17, 3-(N-Me,N-Etcarbamyloxy)α-methyl, N-propargyl phenethylamine.HCl]", "values": [{"measurement": "ΔNSS, 24 hr post-CHI", "setting": "saline 4.75±0.17", "result": "5.58±0.38"}, {"measurement": "ΔNSS, 7 days post-CHI", "setting": "saline 5.83±0.36", "result": "6.92±0.36"}, {"measurement": "ΔNSS, 14 days post-CHI", "setting": "saline 5.96±0.4", "result": "7.83±0.53"}]}
